From patent US20150322051A1, “Macrocyclic picolinamides as fungicides” (Dow AgroSciences LLC, priority 2014, published 2015)
Where two headings read alike, the source gives them in different places.

What was measured:
[1] = test system: Mycosphaerella graminicola; anamorph: Septoria tritici (SEPTTR); assay: Leaf blotch of wheat (SEPTTR) whole-plant fungicidal test; type: in vivo; conditions: Zymoseptoria tritici, topical; for pest or weed control at 100 ppm: high volume application; for pest or weed control at 121.5 g/ha: low volume (track spray) application, 121.5 g/H
Protocol: (§1) All fungicides were evaluated using the aforementioned method for their activity vs. all target diseases, unless stated otherwise. Wheat leaf blotch and brown rust activity were also evaluated using track spray applications, in which case the fungicides were formulated as EC formulations, containing 0.1% Trycol 5941 in the spray solutions. Wheat plants (variety Yuma) were grown from seed in a greenhouse in 50% mineral soil/50% soil-less Metro mix until the first leaf was fully emerged, with 7-10 seedlings per pot. These plants were inoculated with an aqueous spore suspension of Septoria tritici either prior to or after fungicide treatments. After inoculation the plants were kept in 100% relative humidity (one day in a dark dew chamber followed by two to three days in a lighted dew chamber at 20° C.) to permit spores to germinate and infect the leaf. The plants were then transferred to a greenhouse set at 20° C. for disease to develop. When disease symptoms were fully expressed on the 1st leaves of untreated plants, infection levels were assessed on a scale of 0 to 100 percent disease severity. Percent disease control was calculated using the ratio of disease severity on treated plants relative to untreated plants.

[2] = test system: Puccinia triticina; synonym: Puccinia recondita f. sp. tritici (PUCCRT); assay: Wheat brown rust (PUCCRT) whole-plant fungicidal test; type: in vivo; conditions: topical; for pest or weed control at 100 ppm: high volume application; for pest or weed control at 121.5 g/ha: low volume (track spray) application, 121.5 g/H
Protocol: as §1, with “plants. Wheat plants (variety Yuma) were grown from seed in a greenhouse in 50% mineral soil/50% soil-less Metro mix until the first leaf was fully emerged, with 7-10 seedlings per pot. These plants were inoculated with an aqueous spore suspension of Puccinia triticina either prior to or after fungicide treatments. […] The plants were then transferred to a greenhouse set at 24° C. for disease to develop. Fungicide formulation, application and disease assessment followed the procedures as described in the Example A.” for “plants.”

[3] = 24 h, 1 Day Protectant, read-out: High Volume activity at 100 ppm SEPTTR 1DP (% disease control rating)
[4] = 24 h, 1 Day Protectant, read-out: Low Volume activity at 121.5 g/H SEPTTR 1DP (% disease control rating)
[5] = 72 h, 3 Day Curative, read-out: High Volume activity at 100 ppm SEPTTR 3DC (% disease control rating)
[6] = 72 h, 3 Day Curative, read-out: Low Volume activity at 121.5 g/H SEPTTR 3DC (% disease control rating)
[7] = 24 h, 1 Day Protectant, read-out: High Volume activity at 100 ppm PUCCRT 1DP (% disease control rating)
[8] = 24 h, 1 Day Protectant, read-out: Low Volume activity at 121.5 g/H PUCCRT 1DP (% disease control rating)
[9] = 72 h, 3 Day Curative, read-out: High Volume activity at 100 ppm PUCCRT 3DC (% disease control rating)
[10] = 72 h, 3 Day Curative, read-out: Low Volume activity at 121.5 g/H PUCCRT 3DC (% disease control rating)

| Compound | pest or weed control at 100 ppm [1, 3] [%] | pest or weed control at 121.5 g/ha [1, 4] [%] | pest or weed control at 100 ppm [1, 5] [%] | pest or weed control at 121.5 g/ha [1, 6] [%] | pest or weed control at 100 ppm [2, 7] [%] | pest or weed control at 121.5 g/ha [2, 8] [%] | pest or weed control at 100 ppm [2, 9] [%] | pest or weed control at 121.5 g/ha [2, 10] [%] |
| --- | --- | --- | --- | --- | --- | --- | --- | --- |
| CCCC[C@@H]1[C@@H](Cc2ccccc2)CCC[C@H](NC(=O)c2nccc(OC)c2OC(C)=O)C(=O)O[C@H]1C [Compound 1, 2-(((3S,7R,8R,9S)-7-benzyl-8-butyl-9-methyl-2-oxooxonan-3-yl)carbamoyl)-4-methoxypyridin-3-yl acetate] | > 70 | > 70 | > 70 | > 70 | > 70 | > 70 | > 70 | < 70 |
| CCCC[C@@H]1[C@@H](Cc2ccccc2)CCC[C@H](NC(=O)c2nccc(OC)c2OCOC(C)=O)C(=O)O[C@H]1C [Compound 2, ((2-(((3S,7R,8R,9S)-7-benzyl-8-butyl-9-methyl-2-oxooxonan-3-yl)carbamoyl)-4-methoxypyridin-3-yl)oxy)methyl acetate] | > 70 | > 70 | > 70 | > 70 | > 70 | > 70 | > 70 | < 70 |
| COc1ccnc(C(=O)N[C@H]2CCC[C@H](CCC(C)C)[C@@H](Cc3ccccc3)[C@H](C)OC2=O)c1OC(C)=O [Compound 4] |  | > 70 |  | > 70 |  | > 70 |  | < 70 |
| COc1ccnc(C(=O)N[C@H]2CCC[C@H](Cc3ccccc3)[C@@H](Cc3ccccc3)[C@H](C)OC2=O)c1OC(C)=O [Compound 5] |  | > 70 |  | > 70 |  | > 70 |  | > 70 |
| COc1ccnc(C(=O)N[C@H]2CCC[C@H](Cc3ccccc3)[C@@H](Cc3ccccc3)[C@H](C)OC2=O)c1OCOC(C)=O [Compound 6] |  | > 70 |  | > 70 |  | > 70 |  | > 70 |
| COc1ccnc(C(=O)N[C@H]2CCC[C@H](Cc3ccccc3)[C@@H](Cc3ccccc3)[C@H](C)OC2=O)c1OCOC(=O)C(C)C [Compound 7, ((2-(((3S,7R,8R,9S)-7,8-dibenzyl-9-methyl-2-oxooxonan-3-yl)carbamoyl)-4-methoxypyridin-3-yl)oxy)methyl isobutyrate] |  | > 70 |  | > 70 |  | > 70 |  | > 70 |
| CCOCC(=O)OCOc1c(OC)ccnc1C(=O)N[C@H]1CCC[C@H](Cc2ccccc2)[C@@H](Cc2ccccc2)[C@H](C)OC1=O [Compound 8, ((2-(((3S,7R,8R,9S)-7,8-dibenzyl-9-methyl-2-oxooxonan-3-yl)carbamoyl)-4-methoxypyridin-3-yl)oxy)methyl 2-ethoxyacetate] |  | > 70 |  | > 70 |  | > 70 |  | < 70 |
| COc1ccnc(C(=O)N[C@H]2CCC[C@H](Cc3ccccc3)[C@@H](C3CCCC3)[C@H](C)OC2=O)c1OC(C)=O [Compound 9] |  | > 70 |  | > 70 |  | > 70 |  | < 70 |
| COc1ccnc(C(=O)N[C@H]2CCC[C@H](Cc3ccccc3)[C@@H](C3CCCC3)[C@H](C)OC2=O)c1OCOC(C)=O [Compound 10] |  | > 70 |  | > 70 |  | > 70 |  | > 70 |
| COc1ccnc(C(=O)N[C@H]2CCC[C@H](Cc3ccc(Cl)cc3)[C@@H](CC(C)C)[C@H](C)OC2=O)c1OCOC(C)=O [Compound 12] |  | > 70 |  | > 70 |  | > 70 |  | < 70 |
| COc1ccnc(C(=O)N[C@H]2CCC[C@H](Cc3ccc(Cl)cc3)[C@@H](CC(C)C)[C@H](C)OC2=O)c1OC(C)=O [Compound 13] |  | > 70 |  | > 70 |  | > 70 |  | < 70 |
| COc1ccnc(C(=O)N[C@H]2CCC[C@H](Cc3ccccc3)[C@@H](CCc3ccccc3)[C@H](C)OC2=O)c1OCOC(C)=O [Compound 15] |  | > 70 |  | > 70 |  | > 70 |  | < 70 |
| CCOCC(=O)OCOc1c(OC)ccnc1C(=O)N[C@H]1CCC[C@H](Cc2ccccc2)[C@@H](CCc2ccccc2)[C@H](C)OC1=O [Compound 16] |  | > 70 |  | > 70 |  | > 70 |  | > 70 |
| COc1ccnc(C(=O)N[C@H]2CCC[C@H](Cc3ccccc3)[C@@H](CCc3ccccc3)[C@H](C)OC2=O)c1OCOC(=O)C(C)C [Compound 17] |  | > 70 |  | > 70 |  | > 70 |  | < 70 |
| COc1ccnc(C(=O)N[C@H]2CCC[C@H](Cc3ccccc3)[C@@H](CCc3ccccc3)[C@H](C)OC2=O)c1OC(C)=O [Compound 18] |  | > 70 |  | > 70 |  | < 70 |  | < 70 |
| CCOCC(=O)OCOc1c(OC)ccnc1C(=O)N[C@H]1CCC[C@H](Cc2ccc(Cl)cc2)[C@@H](Cc2ccccc2)[C@H](C)OC1=O [Compound 20] |  | > 70 |  | < 70 |  | > 70 |  | > 70 |
| COc1ccnc(C(=O)N[C@H]2CCC[C@H](Cc3ccc(Cl)cc3)[C@@H](Cc3ccccc3)[C@H](C)OC2=O)c1OC(C)=O [Compound 21] |  | > 70 |  | < 70 |  | > 70 |  | < 70 |
| COc1ccnc(C(=O)N[C@H]2CCC[C@H](Cc3ccc(C(F)(F)F)cc3)[C@@H](CC(C)C)[C@H](C)OC2=O)c1OC(C)=O [Compound 22] |  | > 70 |  | < 70 |  | > 70 |  | < 70 |
| COc1ccnc(C(=O)N[C@H]2CCC[C@H](Cc3ccc(C(F)(F)F)cc3)[C@@H](CC(C)C)[C@H](C)OC2=O)c1OCOC(C)=O [Compound 23] |  | > 70 |  | < 70 |  | > 70 |  | < 70 |
| COc1ccnc(C(=O)N[C@H]2CCC[C@H](Cc3ccc(C(F)(F)F)cc3)[C@@H](CC(C)C)[C@H](C)OC2=O)c1OCOC(=O)C(C)C [Compound 24] |  | > 70 |  | < 70 |  | < 70 |  | < 70 |
| COc1ccnc(C(=O)N[C@H]2CCC[C@H](Cc3ccc(C(F)(F)F)cc3)[C@@H](Cc3ccccc3)[C@H](C)OC2=O)c1OC(C)=O [Compound 25] |  | < 70 |  | < 70 |  | < 70 |  | < 70 |
| COc1ccnc(C(=O)N[C@H]2CCC[C@H](Cc3ccc(C(F)(F)F)cc3)[C@@H](Cc3ccccc3)[C@H](C)OC2=O)c1OCOC(C)=O [Compound 26] |  | > 70 |  | < 70 |  | > 70 |  | < 70 |
